# Read-outs that look alike come from different tables or passages of the source.
# Key:
# Assay type in all cases: cell-based
# [1] = system: Varicella-Zoster Virus (VZV) clinical isolate DM625; experiment: VZV plaque reduction assay; details: Human alphaherpesvirus 3, 144 h, VZV in HFF; for EC50: minimum concentration required to inhibit plaque formation by 50%, read-out: MIC50
# Experimental: The compounds of the invention were evaluated for selective activity against varicella zoster virus (VCV) utilizing a plaque reduction assay procedure. The challenge virus was a clinical isolate designated DM625, obtained from Dr. Richard Whitley of the University of Alabama Hospitals, Birmingham, Ala. The virus had been passaged and titrated in cultures of human foreskin fibroblasts (HFF).
# (§1) For the plaque reduction assay, sixth to twelfth passage human foreskin fibroblasts were seeded in wells of 12-well tissue culture plates and incubated at 37° C. in a humidified atmosphere containing 2% CO2 in air. Subconfluent HFF were rinsed with MEM and exposed to 0.5 ml/well of a suspension of VZV diluted in MEM+2% FBS for 2 hours at 37° C. Following the virus adsorption period, the inocula were removed and the infected cell layers were rinsed with MEM. Triplicate VZV-infected cell culture wells were treated with 1.0 ml of each concentration of test compound (in MEM+2% FBS). Six untreated virus-infected cell cultures and triplicate untreated uninfected cell cultures were fed with 1.0 ml of MEM+2% FBS to serve as controls. Wells containing uninfected HFF were treated with each concentration of test compound to monitor the test compound cytotoxicity. The 12-well plates were incubated at 37° C. in the CO2 incubator. At 48 hours post-virus infection (p.i.), fluids in all plate wells were replaced with fresh test compound and/or culture medium.
# Six days p.i., the VZV plaques were counted (unstained, low magnification).The effect of each concentration of test compound on plaque formation was determined by comparing the mean number of plaques in the replicate test compound-treated cultures with the mean plaque counts of the untreated virus control cultures.
# The MIC50 value is the minimum concentration of test Compound required to inhibit plaque formation by 50%.
# [2] = Drug cytotoxicity in Vero cells (microscopic, CPE-inhibition assay); details: african green monkey, minimum drug concentration causing any cytotoxicity, read-out: MTC
# Experimental: Mammalian cells were pregrown as monolayers in wells of COSTAR 96-well tissue culture plates using suitable cell culture media. Stock viruses were pretitered according to the method of Reed and Muench (Amer. J. Hyg. 27:493-497, 1938) and diluted in cell culture medium to yield 32 CCID50 (cell culture infectious dose, 50%) units per 0.1 ml. Antiviral assays were designed to test seven concentrations of each compound, from cytotoxic to noncytotoxic levels, in triplicate against each of the challenge viruses in microtiter plate wells containing suitable cell monolayers. To each of the replicate cell cultures were added 0.1 ml of the test drug solution and 0.1 ml of virus suspension. Cell controls containing medium alone, virus controls containing medium and virus, and drug cytotoxicity controls containing medium and each drug concentration were run simultaneously with the test samples assayed in each experiment. […] The cell monolayers were examined microscopically for virus-induced CPE and for drug cytotoxicity.
# Antiviral activity was determined by calculating the degree of inhibition of virus-induced CPE in drug-treated, virus-infected cell cultures by means of a virus rating (VR). The VR is a standard weighted measurement of antiviral activity taking into account both the degree of CPE inhibition and drug cytotoxicity, and is determined by a modification of the method of Ehrlich et al. (Ann. N.Y. Acad. Sci. 130: 5-16, 1965) as described below. CPE was graded for each individual culture in each microtiter plate well according to the following scale:
# The minimum inhibitory drug concentration which reduced the cytopathogenic effect (CPE) by 50% (MIC50) was calculated by using a regression analysis program for semilog curve fitting. A therapeutic index (TI) for each active compound for each susceptible virus was determined by dividing the minimum cytotoxic concentration of the test compound by the MIC50.
# [3] = MTT test compound cytotoxicity in human foreskin fibroblasts; details: hff cells, read-out: MTT assay (Percent of control)
# Experimental: as §1
# The test compound cytotoxicity control cultures were examined microscopically for gross morphologic changes, then treated with MTT and 30% SDS. The blue color of the MTT formazan was measured spectrophotometrically at 570 nm. Test compound cytotoxicity was determined by comparing the absorbance (O.D.) of each test compound control with the mean O.D. of the cell control cultures and expressed as percent of control.
# [4] = system: Human Cytomegalovirus (HCMV) strain AD169; experiment: HCMV virus yield reduction assay; details: Human betaherpesvirus 5, AD169, 144 h, MRC5 cells; for log reduction at 3.2 µg/mL: 3.2 μg/ml; for log reduction at 10 µg/mL: 10 μg/ml
# Experimental: Human diploid embryonic lung (MRC5) cells were grown in 35 mm wells of 6-well tissue culture plates. Subconfluent cell monolayers were rinsed with phosphate-buffered saline (PBS) and were exposed to 0.5 ml/well of HCMV (strain AD169) suspension for 1.5 hours at 37° C. The virus suspension was diluted in MEM+2% fetal bovine serum (FBS) to yield a multipicity of infection (MOI) of approximately 0.1 plaque forming units (PFU)/cell. Following the virus adsorption period, the inocula were removed and infected cell layers were rinsed with PBS. Aliquiots (2.0 ml) of each test drug concentration (dissolved in MEM supplemented with 2% FBS) were dispensed into triplicate cell cultures: two virus-infected cultures and one uninfected cytotoxicity control culture (exposed to medium without virus for 1.5 hours). Untreated virus-infected control cultures and untreated, uninfected cell control cultures were fed with medium alone. The culture plates were incubated at 37° C. in a humidified atmosphere of 2% CO2 in air. All cell culture fluids were replaced with fresh drug and medium 48 hours postinfection (p.i.). On Day 6 p.i., the cell layers were examined microscopically for cytopathogenic effect (CPE) and drug cytotoxicity. The test and virus control cultures were then harvested by subjecting the cell layers to one cycle of freeze-thawing. The cellular material was scraped into the ambient medium and the contents from replicate cultures were pooled, dispensed into cryotubes and stored at -135° C. The harvested test and virus control samples were thawed and the infectious virus yield was determined by plaque assay in MRC5 cells grown in 12-well cluster plates. Inhibition of HCMV replication by each test compound was determined by comparing the progeny virus yields in the drug-treated cultures with the progeny virus yield in the untreated, virus-infected control cultures.
SMILES,inhibition at 0.032 µM [1],inhibition at 0.1 µM [1],inhibition at 0.32 µM [1],inhibition at 1 µM [1],inhibition at 3.2 µM [1],EC50 [1],MCC ([2]; HSV-1 (E-377)),MCC ([2]; HSV-2 (MS)),viability at 0.1 µM [3],viability at 0.32 µM [3],viability at 1 µM [3],viability at 3.2 µM [3],log reduction at 3.2 µg/mL [4],log reduction at 10 µg/mL [4],other results
"Nc1ccn([C@@H]2O[C@H](CO)[C@H]2CO)c(=O)n1 [Example 22, 1-([2'R,3'R,4'S]-3',4'-Bis(hydroxymethyl)-2'-oxetanyl)cytosine]",29%,86%,100%,100%,100%,0.07 µg/mL,10 µg/mL,10 µg/mL,88%,81%,77%,76%,> 4.4,> 4.4,log reduction at 0.032 µg/mL ([4]; 0.032 μg/ml): 0.8; log reduction at 0.1 µg/mL ([4]; 0.1 μg/ml): 1.4; log reduction at 0.32 µg/mL ([4]; 0.32 μg/ml): 1.9; log reduction at 1 µg/mL ([4]; 1.0 μg/ml): 4.1
"O=c1ccn([C@@H]2O[C@H](CO)[C@H]2CO)c(=O)[nH]1 [Example 23, 1-([2'R,3'R,4'S]-3',4'-Bis(hydroxymethyl)-2'-oxetanyl)uracil]",,,,22%,22%,19.4 µg/mL,320 µg/mL,320 µg/mL,,,,82%,0.2,0.4,inhibition at 10 µM ([1]; 10 μM): 34%; inhibition at 32 µM ([1]; 32 μM): 84%; inhibition at 100 µM ([1]; 100 μM): 100%; inhibition at 320 µM ([1]; 320 μM): 100%; viability at 10 µM ([3]; 10 μM): 84%; viability at 32 µM ([3]; 32 μM): 87%; viability at 100 µM ([3]; 100 μM): 88%; viability at 320 µM ([3]; 320 μM): 82%; log reduction at 32 µg/mL ([4]; 32 μg/ml): 0.5; log reduction at 100 µg/mL ([4]; 100 μg/ml): 0.9; log reduction at 320 µg/mL ([4]; 320 μg/ml): 1.9
"O=c1[nH]c(=O)n([C@@H]2O[C@H](CO)[C@H]2CO)cc1C=CBr [Example 44, 1-([2'R, 3'R, 4'S]-3',4'-Bis(hydroxymethyl)-2'-oxetanyl)-5-(2-bromo-1-vinyl)uracil]",97%,98%,99%,99%,100%,0.0032 µg/mL,,,92%,92%,100%,100%,,,inhibition at 0.0001 µM ([1]; 0.0001 μM): 3%; inhibition at 0.00032 µM ([1]; 0.00032 μM): 6%; inhibition at 0.001 µM ([1]; 0.001 μM): 4%; inhibition at 0.0032 µM ([1]; 0.0032 μM): 16%; inhibition at 0.01 µM ([1]; 0.01 μM): 54%; viability at 0.0001 µM ([3]; 0.0001 μM): 99%; viability at 0.00032 µM ([3]; 0.00032 μM): 98%; viability at 0.001 µM ([3]; 0.001 μM): 93%; viability at 0.0032 µM ([3]; 0.0032 μM): 100%; viability at 0.01 µM ([3]; 0.01 μM): 97%; viability at 0.032 µM ([3]; 0.032 μM): 94%
